According to patent US7585503B2, “Method for detecting multi-drug resistance” (priority 2005, dated 2009):
pIC50: −log10 of the molar value.

How the values were obtained:
Type in all cases: cell-based, human
[1] = system: 2008 sensitive ovarian carcinoma cells; assay: Cytotoxicity assay by colony forming ability, sensitive cells; details: 25 μM cisplatin, 1 h
Experimental: Colony forming ability assay was performed by seeding 100 cells/ml of sensitive or resistant isotypes per each well/ml in 12 well plates. Cells were cultured with DMEM, 10% FBS overnight. The assay was performed in 4 plates for each of the sensitive or resistant isotypes in the format shown in Table 1 and was repeated three times. 2008 isotype pair were used in the experiment. Sensitive cells could not tolerate such high concentration of cisplatin, used in the assay, to serve the resistant cells, as the IC-50 was 10 fold higher for resistant cells compare to their parental susceptible phenotype.
Table 1: Colony forming ability was performed by seeding 100 cells/ml of sensitive or resistant isotypes per each well/ml in 12 well plates. Cells were cultured with DMEM, 10% FBS overnight. The assay was performed in 4 plates for each of the sensitive or resistant isotypes in the above format and was repeated three times for each cell pair. plate 1 (control): DMEM, 10%FBS; plate 2: DMEM containing 25 μM cisplatin; plate 3: DMEM containing 25 μM cisplatin and 5 mU neuraminidase (AUS); plate 4: DMEM containing 5 mU neuraminidase.
After one hour incubation at 37 degree C., 5% CO2, the media of different treatments were removed from the wells. Cells were then washed with DMEM and was replaced by fresh DMEM, 10% FBS. Incubation continued for about two more weeks for the colonies to appear. […]

[2] = system: 2008/C13*5.25 resistant ovarian carcinoma cells; assay: Cytotoxicity assay by colony forming ability, resistant cells; details: 25 μM cisplatin with or without 5 mU sialidase, 1 h, about two weeks of growth
Experimental: To confirm the sialidase effects on F-DDP internalization and sensitizing the resistant cells to the drug, the resistant cells were tested in cytotoxicity assay to determine colony formation ability with cisplatin treatments in the presence and absence of sialidase. Resistant cells were treated with high concentration of cisplatin (25 μM, an IC-50 about 10 fold higher than that of the sensitive cells) in the absence and presence of 5 mU sialidase (see table 1 in “Experimental procedures”). The colony formation ability of MDR cells was reduced 40-50%, when sialidase concomitant with cisplatin was added to the resistant cells compare to the resistant cells treated with the same amounts of cisplatin in the absence of sialidase. The data, thus, support the sialidase-mediated drug internalization and increasing the cytotoxicity of the drug.
Colony forming ability assay was performed by seeding 100 cells/ml of sensitive or resistant isotypes per each well/ml in 12 well plates. Cells were cultured with DMEM, 10% FBS overnight. The assay was performed in 4 plates for each of the sensitive or resistant isotypes in the format shown in Table 1 and was repeated three times. 2008 isotype pair were used in the experiment. […]

[3] = system: 2008/C13*5.25; assay: Cisplatin resistance (IC-50) of resistant sub-line versus parental line
Text: (§1) Three isogenic pairs of sensitive and multidrug resistant phenotypes of human ovarian carcinoma cell lines were studied. […] The morphology of the resistant cells differed from the sensitive isotypes, consistent with the cell surface molecular modifications.

[4] = system: IGROV-1/CP; assay: as above; details: IGROV-1/CP versus parental IGROV-1
Text: as §1

[5] = system: A2780/CP; assay: as above
Text: as §1

## N.N.[Cl][Pt][Cl] [cisplatin, Dichlorodiaminocisplatin]
[1]
  colony formation (in words): almost no real colony formed
[2]
  cell growth / colony formation relative to control (plate #1 = 100% growth): about 80 % of the control
[3]; 2008/C13*5.25 versus parental 2008
  fold increase in IC-50 to cisplatin resistance: 10.4 fold
[3]; resistant cells, the concentration used in the colony assay
  pIC50: 4.60
[4]
  fold increase in IC-50 to cisplatin resistance: 7.6 fold
[5]
  fold increase in IC-50 to cisplatin resistance: 6.9 fold
